# Source: US5959113A, “Imidazol derivatives” (Hoffmann-La Roche Inc., priority 1994, dated 1999)
# Columns and labels:
# mouse hair follicles = assay: Stimulation of cell proliferation in cultured mouse hair follicles; format: cell-based; settings: for EC50: read-out: concentration which resulted in a half-maximum stimulation of the DNA synthesis (EC50 value)
# Protocol: Stimulation of cell proliferation in cultured mouse hair follicles
# Mouse hair follicles are isolated and cultured according to the method described by Buhl et al., J. Invest. Dermatol. 92, 315 (1989). Whisker parts are removed from CD-1 mice aged 4 days and the hair follicles are carefully separated from surrounding tissue under the microscope. Hair follicles are cultured in M199 medium which contains 20% FBS and the cell proliferation is determined from the incorporation of [^3 H]-thymidinein DNA. The test compounds are dissolved in DMSO and added in serial dilutions in the range of 1×10^-8 to 1×10^-6 M at the beginning of the cultivation. After 1 day 5 μCi/ml of [^3 H]-thymidine are added to the culture medium and the follicles are incubated for a further 3 days. The hair follicles are then washed with phosphate-buffered saline solution in order to remove non-incorporated radioactivity and the DNA is solubilized by incubation with alkali overnight. The radioactivity incorporated into the follicular DNA is then measured using a liquid scintillation counter.
# p56^Ick tyrosine kinase = biological target: T1, p56^Ick tyrosine kinase (Homo sapiens, UniProt P06239); assay: Inhibition of p56^Ick tyrosine kinase; format: biochemical; settings: human recombinant p56lck, 30 °C, 30 min, ATP 10 μM, RR-src peptide 0.75 mM; read-out: IC50 Isolated enzyme p56^lck
# T1 construct: made in house; host or cells: E. coli
# T1 sequence (P06239 whole entry): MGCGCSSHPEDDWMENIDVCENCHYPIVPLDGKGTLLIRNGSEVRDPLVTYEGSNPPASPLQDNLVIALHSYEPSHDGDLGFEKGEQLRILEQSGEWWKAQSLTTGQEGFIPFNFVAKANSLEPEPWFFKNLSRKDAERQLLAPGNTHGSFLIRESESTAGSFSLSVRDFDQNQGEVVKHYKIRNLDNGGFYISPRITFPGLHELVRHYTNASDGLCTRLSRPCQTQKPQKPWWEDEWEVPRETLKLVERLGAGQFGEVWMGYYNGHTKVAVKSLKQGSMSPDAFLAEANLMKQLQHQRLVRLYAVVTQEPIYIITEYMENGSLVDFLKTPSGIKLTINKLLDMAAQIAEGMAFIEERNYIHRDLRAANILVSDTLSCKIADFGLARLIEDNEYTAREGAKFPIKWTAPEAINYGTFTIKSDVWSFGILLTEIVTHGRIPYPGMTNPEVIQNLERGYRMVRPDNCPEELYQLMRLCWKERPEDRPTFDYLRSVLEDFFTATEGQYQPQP
# Protocol: Inhibition of p56^Ick tyrosine kinase
# The activity of p56^Ick tyrosine kinase is determined by measuring the transfer of ^32 P-labelled phosphate from ^32 P-γ-ATP (10 μM) to the substrate RR-src peptide (0.75 mM). Human recombinant p56^Ick (expressed in E. coli) is used as the enzyme.
# It is purified from the soluble fraction by means of a monoclonal antibody column and stored at -75° C. The compounds are tested in 10% DMSO in a concentration of 0.001-100 μM, The incubation is carried out at 30° C. for a period of 30 minutes in HEPES buffer (50 mM, pH 6.9) which contains manganese chloride (11 mM) and 0.5% BSA. The test is started by adding the enzyme and terminated by adding ice-cold KH2 PO4 (1M, pH 3.0). After centrifugation the radiolabelled peptide is separated from excess ATP in the supernatant by reversed phase HPLC. The peptide fraction is collected and the radioactivity is determined in a standard β- counter or on-line with a radiometer (Berthold). The inhibitory activity of the test compound is expressed as the micromolar concentration which is required for 50% inhibition (IC50 [μM]).
# (§1) The inhibition of selected protein kinases in vitro and the inhibition of cell proliferation in HaCaT-cells by these compounds are set forth in the following Table.
# protein kinase C (PKC) = assay: Inhibition of protein kinase C (PKC); format: biochemical; settings: partially purified PKC from hog brain, histone H1, ATP 10 μM, 2 min at 32 °C; read-out: IC50 Isolated enzyme PCK
# Protocol: Inhibition of protein kinase C (PKC)
# The activity of PKC is measured by measuring the transfer of ^32 P-labelled phosphate from ^32 P-γ-ATP (10 μM) to the substrate histone H1 (200 μg/ml) using partially purified PKC from hog brain (DEAE chromatography according to U. Kikkawa et al., Methods Enzymol. 99, 288, 1983). PKC is activated by phospholipid vesicle prepared by sonicating a mixture of 0.05 ml of phosphatidylserine (10 mg/ml) and 0.005 ml of diolein (10 mg/ml) in 5 ml of Tris HCl buffer (20 mM, pH 7.4). The compounds are tested in DMSO/buffer at a concentration of 0.001-100 μM. The test is started by adding the enzyme, takes 2 minutes at 32° C. and is terminated by adding 20% trichloroacetic acid (containing 1% SDS and 1% sodium pyrophosphate). The precipitated protein with the labelled histone is separated from excess ATP by filtration over a nitrocellulose membrane filter. The radioactivity on the filter is measured in a scintillation counter. The inhibitory activity of the test compound is expressed as the micromolar concentration which is required for 50% inhibition (IC50 [μM]).
# as §1
# HaCaT cells = assay: Inhibition of HaCaT cell proliferation; format: cell-based; settings: Homo sapiens, [3H]-thymidine incorporation, 48 h at 37 °C
# Protocol: Inhibition of HaCaT cell proliferation
# HaCaT is a spontaneous immortalized human keratinoycte cell line (Boukamp et al. 1988) which has been used many times as a model system for hyperproliferative keratinoyctes. The incorporation of [^3 H]-thymidine was used to quantify the growing cells in the S phase of the cell cycle. The cells were cultivated with a 3:1 mixture of DMEM/F12 medium which had been supplemented with 5% FCS, EGF (10 μg/l), hydrocortisone (400 μg/l), cholera toxin (8.5 μg/l), insulin (5 μg/l), L-glutamine (2 mM) and penicillin/streptomycin. 200 μl of medium were placed in microtitre plates such that each sample contained 5000 cells. The test compounds were added in serial dilutions in the range of 1×10^-8 M to […] at the beginning of the cultivation. The cells were incubated at 37° C. for 48 hours. For the last 6 hours [^3 H]-thymidine was added ([…]). After digesting the cells with trypsin the amount of incorporated radioactivity was quantified with a liquid scintillation counter.
# as §1
# [1] = biological target: cAMP-dependent protein kinase (PKA); assay: Inhibition of cAMP-dependent protein kinase (PKA); format: biochemical; settings: partially purified PKA from hog brain, histone H1, ATP 10 μM, 2 min at 32 °C; read-out: IC50 Isolated enzyme PKA
# Protocol: Inhibition of cAMP-dependent protein kinase (PKA)
# The activity of PKA is measured by measuring the transfer of ^32 P-labelled phosphate from ^32 P-γ-ATP (10 μM) to the substrate histone H1 (333 μg/ml) using partially purified PKA from hog brain (DEAE chromatography according to U. Kikkawa et al., Methods Enzymol. 99, 288, 1983). PKA is activated by 2 μM of cAMP in Tris HCl buffer (20 mM, pH 7.4). The compounds are tested in DMSO/buffer at a concentration of 0.001-100 μM. The test is started by adding the enzyme, takes 2 minutes at 32° C. and is terminated by adding 20% trichloroacetic acid (containing 1% SDS and 1% sodium pyrophosphate). The precipitated protein, which contains the radiolabelled histone, is separated from excess ATP by filtration through a nitrocellulose membrane filter. The radioactivity on the filter is determined in a scintillation counter. The inhibitory activity of the test compounds is expressed as the micromolar concentration which is required for 50% inhibition (IC50 [μM]).
# as §1
# [2] = biological target: T2, EGF-receptor tyrosine kinase (Homo sapiens, UniProt P00533); assay: Inhibition of EGF-receptor Tyrosine Kinase; format: biochemical; settings: EGF-R from A431 cell membranes, 30 °C, 30 min, ATP 10 μM, RR-src peptide 0.75 mM; read-out: IC50 Isolated enzyme EGF-R
# T2 construct: A membrane fraction from human A431 cells is used as the enzyme; endogenous in cells; host or cells: A431 cells, membrane fraction (Thom et al., Biochem. J. 168, 187 (1977))
# T2 sequence (P00533 25-1210): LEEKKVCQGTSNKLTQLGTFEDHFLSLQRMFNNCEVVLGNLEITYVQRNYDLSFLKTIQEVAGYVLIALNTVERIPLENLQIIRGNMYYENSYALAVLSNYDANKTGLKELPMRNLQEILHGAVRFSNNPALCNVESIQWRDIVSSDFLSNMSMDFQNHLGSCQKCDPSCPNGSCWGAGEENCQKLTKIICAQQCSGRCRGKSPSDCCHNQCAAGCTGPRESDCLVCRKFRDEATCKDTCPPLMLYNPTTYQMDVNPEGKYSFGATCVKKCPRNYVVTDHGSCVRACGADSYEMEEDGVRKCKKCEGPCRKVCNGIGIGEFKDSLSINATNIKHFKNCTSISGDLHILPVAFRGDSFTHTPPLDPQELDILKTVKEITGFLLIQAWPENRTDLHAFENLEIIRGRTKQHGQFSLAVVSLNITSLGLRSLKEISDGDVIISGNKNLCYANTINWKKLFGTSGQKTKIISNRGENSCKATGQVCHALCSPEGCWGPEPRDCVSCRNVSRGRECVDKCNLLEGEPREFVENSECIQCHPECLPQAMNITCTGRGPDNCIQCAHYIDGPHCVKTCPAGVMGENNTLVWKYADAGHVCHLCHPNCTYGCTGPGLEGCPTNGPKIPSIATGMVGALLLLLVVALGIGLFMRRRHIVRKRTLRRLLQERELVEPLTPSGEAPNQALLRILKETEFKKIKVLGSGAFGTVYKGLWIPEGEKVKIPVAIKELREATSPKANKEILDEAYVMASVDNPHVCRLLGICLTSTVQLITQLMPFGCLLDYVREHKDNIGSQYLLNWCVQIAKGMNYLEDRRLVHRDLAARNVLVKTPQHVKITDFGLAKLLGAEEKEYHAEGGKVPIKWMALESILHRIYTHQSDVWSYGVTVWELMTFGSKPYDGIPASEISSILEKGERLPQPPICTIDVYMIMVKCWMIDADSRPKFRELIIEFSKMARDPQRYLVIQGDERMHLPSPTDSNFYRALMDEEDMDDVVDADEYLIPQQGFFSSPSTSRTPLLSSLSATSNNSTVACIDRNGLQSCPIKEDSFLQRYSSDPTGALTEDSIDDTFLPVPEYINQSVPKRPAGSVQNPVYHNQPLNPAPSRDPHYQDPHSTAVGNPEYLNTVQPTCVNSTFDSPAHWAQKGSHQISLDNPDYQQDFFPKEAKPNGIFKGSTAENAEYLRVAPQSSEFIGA
# Protocol: Inhibition of EGF-receptor Tyrosine Kinase
# The activity of EGF-receptor tyrosine kinase is determined by measuring the transfer of ^32 P-labelled phosphate from ^32 P-γ-ATP (10 μM) to the substrate RR-scr peptide* (0.75 mM). A membrane fraction from human A431 cells is used as the enzyme. It is isolated according to Thom et al., Biochem. J. 168, 187 (1977) and stored at -75° C. (4-6 mg protein/ml). The compounds are tested in 10% DMSO in a concentration of 0.001-100 μM. The incubation is carried out at 30° C. for a period of 30 minutes in Tris buffer (25 mM, pH 7.4) which contains magnesium acetate (30 mM), sodium vanadate (0.5 mM), 0.5% BSA and 0.05% Triton X-100. The membranes are pre-incubated with 2 μM of EGF at 4° C. for 90 minutes. The test is started by adding the enzyme (2 μg of membrane protein) and terminated by adding ice-cold KH2 PO4 (1M, pH 3.0). After centrifugation the labelled peptide is separated from excess ATP in the supernatant by reversed phase HPLC. The peptide fraction is collected and the radioactivity is measured in a standard β-counter or on-line with a radiometer (Berthold). The inibitory activity of the test compound is expressed as the mikromolar concentration which is required for 50% inhibition (IC50 [μM]).
# *RR-src peptide=[Arg-Arg-Leu-Ile-Glu-Asp-Ala-Glu-Tyr-Ala-Ala-Arg-Gly]
# as §1
# [3] = [3H]-thymidine incorporation, CD-1 mouse whisker follicles
SMILES,EC50 (mouse hair follicles; [3]),"stimulation of hair follicle DNA synthesis (compared with controls) (mouse hair follicles; concentration not given, comparison agent, 5760 min)",IC50 (p56^Ick tyrosine kinase),IC50 (protein kinase C (PKC)),IC50 (HaCaT cells),IC50 [1],IC50 [2],"activity at 0.3 µM (mouse hair follicles; 96 h, at 0.3 μM, [3H]-thymidine incorporation, CD-1 mouse whisker follicles, read-out: maximum DNA synthesis value (compared with controls))",activity in this culture system compared with known hypotrichotic agents (mouse hair follicles; mouse hair follicle culture)
"Nc1cc(N2CCCCC2)nc(N)[n+]1[O-] [minoxidil, reference compound]",200000 nM,160±15%,–,–,–,–,–,–,–
"Cc1cc(C)c(-c2nc(-c3ccncc3)c(-c3ccc(Cl)cc3)[nH]2)c(C)c1CN(C)C [Example 12, [3-[5-(4-chlorophenyl)-4-pyridin-4-yl-imidazol-2-yl]-2,4,6,-trimethylbenzyl]dimethylamine]",–,–,1650 nM,7000 nM,570 nM,5000 nM,50 nM,–,–
"Cc1cc(C)c([N+](=O)[O-])c(C)c1-c1nc(-c2ccncc2)c(-c2ccc(Cl)cc2)[nH]1 [Example 15, 4-[5-(4-chlorophenyl)-2-(2,4,6-trimethyl-3-nitrophenyl)-imidazol-4-yl]pyridine]",–,–,4950 nM,–,670 nM,–,780 nM,–,–
"COC(=O)c1c(C)cc(C)c(-c2nc(-c3ccncc3)c(-c3ccc(Cl)cc3)[nH]2)c1C [Example 9, methyl 3-[5-(4-chlorophenyl)-4-pyridin-4-yl-imidazol-2-yl]2,4,6-trimethylbenzoate]",–,–,3800 nM,80000 nM,230 nM,6000 nM,140 nM,–,–
"Cc1cccc(-c2[nH]c(-c3c(C)cc(C)cc3C)nc2-c2ccncc2)c1 [Example 4, 4-[5-(3-methylphenyl)-2-(2,4,6-trimethylphenyl)imidazol-4-yl]pyridine]",–,–,6000 nM,> 100000 nM,2000 nM,190000 nM,800 nM,–,–
"CC(C)c1cccc(C(C)C)c1-c1nc(-c2ccncc2)c(-c2ccc(Cl)cc2)[nH]1 [Example 7, 4-[5-(4-chlorophenyl)-2-(2,6-diisopropylphenyl)imidazol-4-yl]pyridine]",–,–,3100 nM,100000 nM,3500 nM,470 nM,130 nM,–,–
"Cc1cc(C)c(-c2nc(-c3ccncc3)c(-c3ccc(Cl)cc3)[nH]2)c(C)c1CN1CCOCC1 [Example 11, 4-[3-[5-(4-chlorophenyl)-4-pyridin-4-yl-imidazol-2-yl]-2,4,6,-trimethylbenzyl]morpholine]",–,–,5100 nM,> 100000 nM,100 nM,43000 nM,260 nM,–,–
"Cc1cc(C)c(-c2nc(-c3ccncc3)c(-c3ccc(Cl)cc3)[nH]2)c(C)c1CN1CCN(C)CC1 [Example 13, 1-[3-[5-(4-chlorophenyl)-4-pyridin-4-yl-imidazol-2-yl]-2,4,6,-trimethylbenzyl]-4-methylpiperazine]",–,–,1800 nM,37000 nM,100 nM,1500 nM,50 nM,–,–
"Cc1cc(C)c(-c2nc(-c3ccncc3)c(-c3ccc(Cl)cc3)[nH]2)c(C)c1O [Example 16, 3-[5-(4-chlorophenyl)-4-pyridin-4-yl-imidazol-2-yl]-2,4,6,-trimethylphenol]",–,–,2200 nM,–,800 nM,–,310 nM,–,–
"Nc1cccc(Cl)c1-c1nc(-c2ccncc2)c(-c2ccc(Cl)cc2)[nH]1 [Example 18, 3-chloro-2-[5-(4-chlorophenyl)-4-pyridin-4-yl-imidazol-2-yl]phenylamine]",–,–,14000 nM,23000 nM,2000 nM,1800 nM,290 nM,–,–
"Cc1cc(C)c(-c2nc(-c3ccncc3)c(-c3ccc(Cl)cc3)[nH]2)c(C)c1 [Example 1, 4-[5-(4-chlorophenyl)-2-(2,4,6-trimethyphenyl)imidazol-4-yl]pyridine]",100 nM,–,2200 nM,> 100000 nM,2000 nM,6300 nM,340 nM,211 ± 17%,exceeded that of known hypotrichotic agents
